Test system: MPTP-lesioned marmoset
Assay: L-DOPA-induced dyskinesia in MPTP-treated marmoset model of Parkinson's disease
Format: in vivo, common marmosets (Callithrix jacchus)
Conditions: for Median total dyskinesia scores compared to animals treated with L-DOPA and vehicle / Animals in which dyskinesia was completely abolished: antagonist 10 mg/kg i.p. with L-DOPA 8 mg/kg p.o.; for Median total dyskinesia scores compared to animals treated with L-DOPA and vehicle: cumulative scores; for Animals in which dyskinesia was completely abolished: n=6
Method: The effect of the selective mu opioid receptor antagonist Cyprodime on dyskinesia was assessed in a 1-methyl-4-phenyl-1,2,3,6-tetrahydropyridine (MPTP)-treated marmoset model of Parkinson's disease.
Six adult common marmosets (Callithrix jacchus) were obtained from a closed colony bred at Manchester University, BSU. This study was conducted in the U.K. in accordance with the requirements of The Animals (Scientific Procedures) Act, 1986. The animals were kept in controlled housing conditions, with constant temperature (25° C.), relative humidity (50%) and 12 h light/dark cycles (08.00-20.00 light on). The animals had free access to food (Masuri primate diet-E, Scientific Dietary Services, UK), fresh fruit supplements and water. Marmosets were rendered parkinsonian by treatment with 1-methyl-4-phenyl-1,2,3,6-tetrahydropyridine (MPTP) hydrochloride (Sigma, 2 mg/kg s.c. for 5 consecutive days). […] The animals were allowed to recover for a period of 14 weeks until behavioural assessment was commenced.
Dyskinesia was established in these animals by twice daily treatment with L-DOPA (10 mg/kg p.o. as Madopar Dispersible®) for 3 weeks.
Opioid antagonists, or vehicle, were administered with L-DOPA to assess the effects of adjunctive treatment on L-DOPA-induced dyskinesia and the anti-parkinsonian efficacy of L-DOPA. All animals received all treatments. Treatments in any one animal were separated by at least three days. Naltrexone (non-selective antagonist) was administered at a dose of 10 mg/kg (i.p), cyprodime (mu selective antagonist) was administered at a dose of 10 mg/kg (i.p.), naltrindole (delta selective antagonist) was administered at a dose of 10 mg/kg (i.p.), nor-binaltorphimine (nor-BNI, kappa selective antagonist) was administered at a dose of 20 mg/kg (i.p.). Drugs or vehicle were administered with L-DOPA treatment (8 mg/kg p.o.). Behaviour was assessed for 3 hours post drug administration.
A battery of behavioural assessments was performed to assess the intensity, range and speed of movements. In addition, postural abnormalities and dyskinesia were assessed. • 1) Parkinsonian disability—non-parametric measures based on the following scales • i) Motor activity (repertoire) score: 0=no movement at all, 1=movement of head or trunk, 2=movement of limbs but no locomotion, on the floor of the cage, 3=on wall of cage/perch, movement of head or trunk, 4=on wall of cage/movement of limbs but no locomotion, 5=walking around/eating on floor of cage, 6=hopping on floor of cage, 7=climbing onto wall of cage or perch, 8=climbing up and down the walls of the cage or along perch, 9=running, jumping, climbing between cage walls/perch/roof, uses limbs through a wide range of motion and activity. • ii) Bradykinesia score: 0=normal speed of movement, 1=moderate slowing of movement, difficulty initiating and maintaining movement 2=akinetic, unable to move (maximum score in 30 minutes=12). • iii) Posture score: 0=normal, upright, holds head up, 1=impaired, crouched, face down. (maximum score in 30 minutes=6). • 2) Dyskinesia • 0=Absent • 1=Mild, fleeting • 2=Moderate, not interfering with normal activity • 3=Marked, at times interfering with normal activity • 4=Severe, continuous, replacing normal activity
Parameters 1 and 2 were assessed every 30 minutes throughout a six hour period by post-hoc analysis of videotape recordings. Assessment was made by an observer blinded to the treatment administered.
Non-parametric measures of mobility, bradykinesia, posture and dyskinesia were cumulated and compared between treatments with a Friedman's test with post hoc Dunn's test where appropriate.

[1] = L-DOPA 8 mg/kg p.o., MPTP-treated marmosets

Row | Compound | Median total dyskinesia scores compared to animals treated with L-DOPA and vehicle (n=6, FIG. 1) | Animals in which dyskinesia was completely abolished | further results
1 | N[C@@H](Cc1ccc(O)c(O)c1)C(=O)O [L-DOPA] | – | – | Parkinsonian symptoms after L-DOPA treatment [1]: reversed; Time to commencement of dyskinesia after L-DOPA administration [1]: ≤ 5 min
2 | Oc1ccc2c3c1O[C@H]1c4[nH]c5ccccc5c4C[C@@]4(O)[C@@H](C2)N(CC2CC2)CC[C@]314 [naltrindole] | reduced | 50% | –
3 | Oc1ccc2c3c1O[C@H]1c4[nH]c5c(c4C[C@@]4(O)[C@@H](C2)N(CC2CC2)CC[C@]314)C[C@@]1(O)[C@H]2Cc3ccc(O)c4c3[C@@]1(CCN2CC1CC1)[C@H]5O4 [nor-BNI, nor-binaltorphimine] | – | – | Median total dyskinesia scores (effect on L-DOPA-induced dyskinesia) (antagonist 20 mg/kg i.p. with L-DOPA 8 mg/kg p.o., n=6, FIG. 1): no effect
4 | O=C1CC[C@@]2(O)[C@H]3Cc4ccc(O)c5c4[C@@]2(CCN3CC2CC2)[C@H]1O5 [naltrexone] | reduced | 33% | –
5 | COc1cccc2c1[C@]13CCN(CC4CC4)[C@H](C2)[C@]1(OC)CCC(=O)C3 [cyprodime] | markedly reduced | 100% | Dyskinesia exhibited by each treated animal (10 mg/kg i.p. with L-DOPA 8 mg/kg p.o., individual animals): minimal or no dyskinesia

Source: US8198294B2, “Treatment of dyskinesia” (Motac Neuroscience Limited, priority 2001, dated 2012)
